The values that follow are results of earlier work, collected in patent US20020022057A1, “Oral delivery of pharmaceuticals via encapsulation” (priority 2000, published 2002).

The conditions of data set [1]: applied topically to the skin.
For data set [2] the following is noted: sublingual versus oral.

On to `CC(=O)Oc1ccccc1C(=O)O` [Aspirin, aspirin], for which, in data set [1], the “skin reactions, including erythema and peeling” value is listed as 30 % of the subjects.

`CC(=O)[C@H]1CC[C@H]2[C@@H]3CCC4=CC(=O)CC[C@]4(C)[C@H]3CC[C@]12C` [progesterone]: in data set [2], the “sublingual applications more effective than oral applications” value is 50%.
